This is an account of results in patent publication US20240050428A1 (Cullgen (Shanghai), Inc., priority 2020, published 2024).

Where two headings read alike, the source gives them in different places. A value given as a limit tells only on which side of the number the result lay.

The test system of one test is MV4;11 cells. In words: Cell viability assay (CellTiter-Glo) in MV4;11 cells, alone or with gilteritinib. The format is cell-based. The conditions noted are these: read-out: MV4. (In ATP-based viability assays light output follows the ATP content of the culture.)
A further test has as its system MOLM-13 cells. Briefly: Cell viability assay (CellTiter-Glo) in MOLM-13 cells, alone or with gilteritinib. The format is cell-based.
Where [1] appears, read: Homo sapiens, MV4-11, 72 h, MV4;11 cells, with 10 nM gilteritinib, 3 days, CellTiter-Glo, 11 IC50 gilteritinib.
Setting [2] is: Homo sapiens, MV4-11, 72 h, MV4;11 cells, without gilteritinib, 3 days, CellTiter-Glo, 11 IC50.
The mark [3] stands for this setting: Homo sapiens, MOLM-13, 72 h, MOLM-13 cells, with 20 nM gilteritinib, 3 days, CellTiter-Glo, read-out: MOLM-13 IC50 gilteritinib.
Setting [4] is: Homo sapiens, MOLM-13, 72 h, MOLM-13 cells, without gilteritinib, 3 days, CellTiter-Glo, read-out: MOLM-13 IC50.

Turning to `O=C1CCC(N2C(=O)c3ccc(NCCCN4CC(N5CCN(c6ccccn6)CC5)C4)cc3C2=O)C(=O)N1` (centres unmarked), the IC50 in the test on MV4;11 cells (Homo sapiens, 72 h, MV4;11 cells, compound alone (without gilteritinib), three days, CellTiter-Glo, 11 IC50) was above 1000 nM; with MV4;11 cells (Homo sapiens, 72 h, MV4;11 cells, with gilteritinib 10 nM, three days, CellTiter-Glo, 11 IC50 gilteritinib), above 1000 nM; in the test with MOLM-13 cells (Homo sapiens, 72 h, MOLM-13 cells, compound alone (without gilteritinib), three days, CellTiter-Glo, read-out: MOLM-13 IC50), above 1000 nM; with MOLM-13 cells (Homo sapiens, 72 h, MOLM-13 cells, with gilteritinib 20 nM, three days, CellTiter-Glo, read-out: MOLM-13 IC50 gilteritinib) it was 10 to 100 nM.
Turning to `O=C1CCC(N2Cc3cc(CNC(=O)C(F)(F)c4ccc(Cl)cc4)ccc3C2=O)C(=O)N1` (centres unmarked) [CC-90009, reference compound], the IC50 in the test on MV4;11 cells (MV4;11 cells, with 10 nM gilteritinib, 3 days, CellTiter-Glo, 11 IC50 gilteritinib) came to 7.1 nM; in the test on MV4;11 cells (MV4;11 cells, without gilteritinib, 3 days, CellTiter-Glo, 11 IC50), 54 nM; in the test on MOLM-13 cells (MOLM-13 cells, with 20 nM gilteritinib, 3 days, CellTiter-Glo, read-out: MOLM-13 IC50 gilteritinib) it was 8.6 nM; in the test with MOLM-13 cells (MOLM-13 cells, without gilteritinib, 3 days, CellTiter-Glo, read-out: MOLM-13 IC50), 103 nM.
As for `O=C1CCC(N2C(=O)c3ccc(NCCCCCC(=O)N4CCCCC4)cc3C2=O)C(=O)N1` (centres unmarked) [GS-001, 2-(2,6-Dioxopiperidin-3-yl)-5-((6-oxo-6-(piperidin-1-yl)hexyl)amino)isoindoline-1,3-dione], the IC50 was above 10000 nM with MV4;11 cells (setting [1]), 4740 nM in the test on MV4;11 cells (setting [2]), 27 nM in the test on MOLM-13 cells (setting [3]) and 301 nM in the test on MOLM-13 cells (setting [4]).
Taken in the same sequence, the figures for `O=C1CCC(N2C(=O)c3ccc(NCCCCCC(=O)N4CCC(n5cccn5)CC4)cc3C2=O)C(=O)N1` (centres unmarked) [GS-003, 5-((6-(4-(1H-Pyrazol-1-yl)piperidin-1-yl)-6-oxohexyl)amino)-2-(2,6-dioxopiperidin-3-yl)isoindoline-1,3-dione] were 191 nM, above 10000 nM, 103 nM and above 10000 nM.
Consider `O=C1CCC(N2Cc3cc(CNC(=O)C(F)(F)c4cccc(N5CCC(n6cc(-c7cnc8cccc(Br)c8n7)cn6)CC5)c4)ccc3C2=O)C(=O)N1` (centres unmarked) [GS-004, 2-(3-(4-(4-(8-bromoquinoxalin-2-yl)-1H-pyrazol-1-yl)piperidin-1-yl)phenyl)-N-((2-(2,6-dioxopiperidin-3-yl)-1-oxoisoindolin-5-yl)methyl)-2,2-difluoroacetamide], for which the IC50 came to 0.5 nM with MV4;11 cells (setting [1]), 1.3 nM in the test on MV4;11 cells (setting [2]), 0.2 nM in the test on MOLM-13 cells (setting [3]) and 2.1 nM in the test on MOLM-13 cells (setting [4]).
With `O=C1CCC(N2Cc3cc(CNC(=O)C(F)(F)CCC(=O)N4CCC(n5cc(-c6cnc7cccc(Br)c7n6)cn5)CC4)ccc3C2=O)C(=O)N1` (centres unmarked) [GS-007, 5-(4-(4-(8-bromoquinoxalin-2-yl)-1H-pyrazol-1-yl)piperidin-1-yl)-N-((2-(2,6-dioxopiperidin-3-yl)-1-oxoisoindolin-5-yl)methyl)-2,2-difluoro-5-oxopentanamide], the IC50 is 9.9 nM in the test on MV4;11 cells (setting [1]), 170 nM in the test on MV4;11 cells (setting [2]), 32 nM in the test with MOLM-13 cells (setting [3]) and 179 nM with MOLM-13 cells (setting [4]).
As to `O=C1CCC(N2C(=O)c3ccc(NCCCCCC(=O)N4CCC(n5cc(C6CNc7ccccc7N6)cn5)CC4)cc3C2=O)C(=O)N1` (centres unmarked) [GS-008, 2-(2,6-Dioxopiperidin-3-yl)-5-((6-oxo-6-(4-(4-(1,2,3,4-tetrahydroquinoxalin-2-yl)-1H-pyrazol-1-yl)piperidin-1-yl)hexyl)amino)isoindoline-1,3-dione], the IC50 is 27 nM with MV4;11 cells (setting [1]), 449 nM with MV4;11 cells (setting [2]), 14 nM in the test on MOLM-13 cells (setting [3]) and 78 nM in the test on MOLM-13 cells (setting [4]).
Take `O=C1CCC(N2C(=O)c3ccc(NCCCCCC(=O)N4CCC(n5cc(-c6cnccn6)cn5)CC4)cc3C2=O)C(=O)N1` (centres unmarked) [GS-009, 2-(2,6-Dioxopiperidin-3-yl)-5-((6-oxo-6-(4-(4-(pyrazin-2-yl)-1H-pyrazol-1-yl)piperidin-1-yl)hexyl)amino)isoindoline-1,3-dione]: the IC50 in the test with MV4;11 cells (setting [1]) was determined as 22 nM; with MV4;11 cells (setting [2]), 296 nM; in the test with MOLM-13 cells (setting [3]), 18 nM; in the test with MOLM-13 cells (setting [4]), 35 nM.
As for `O=C1CCC(N2C(=O)c3ccc(NCCCCCC(=O)N4CCC(c5ccccc5)CC4)cc3C2=O)C(=O)N1` (centres unmarked) [GS-010, 2-(2,6-Dioxopiperidin-3-yl)-5-((6-oxo-6-(4-phenylpiperidin-1-yl)hexyl)amino)isoindoline-1,3-dione], the IC50 amounted to 17 nM in the test on MV4;11 cells (Homo sapiens, MV4-11, 72 h, 11 IC50); 2.3 nM in the test on MV4;11 cells (Homo sapiens, MV4-11, 72 h, 11 IC50 gilteritinib); 3 nM with MOLM-13 cells (Homo sapiens, MOLM-13, 72 h, read-out: MOLM-13 IC50); 0.3 nM in the test with MOLM-13 cells (Homo sapiens, MOLM-13, 72 h, read-out: MOLM-13 IC50 gilteritinib).
For `O=C1CCC(N2C(=O)c3ccc(NCCCCCC(=O)N4CCC(N5CCOCC5)CC4)cc3C2=O)C(=O)N1` (centres unmarked) [GS-011, 2-(2,6-Dioxopiperidin-3-yl)-5-((6-(4-morpholinopiperidin-1-yl)-6-oxohexyl)amino)isoindoline-1,3-dione], the IC50 in the test on MV4;11 cells (setting [1]) is above 10000 nM; with MV4;11 cells (setting [2]), above 10000 nM; with MOLM-13 cells (setting [3]), 270 nM; in the test with MOLM-13 cells (setting [4]), above 10000 nM.
With `O=C1CCC(N2C(=O)c3ccc(NCCCCCC(=O)N4CCC(N5CCCCC5)CC4)cc3C2=O)C(=O)N1` (centres unmarked) [GS-012, 5-((6-([1,4′-Bipiperidin]-1′-yl)-6-oxohexyl)amino)-2-(2,6-dioxopiperidin-3-yl)isoindoline-1,3-dione], the IC50 in the test with MV4;11 cells (setting [1]) is above 10000 nM; in the test on MV4;11 cells (setting [2]), above 10000 nM; in the test with MOLM-13 cells (setting [3]) it was 312 nM; in the test with MOLM-13 cells (setting [4]), above 10000 nM.
Take `CN1CCN(C2CCN(C(=O)CCCCCNc3ccc4c(c3)C(=O)N(C3CCC(=O)NC3=O)C4=O)CC2)CC1` (centres unmarked) [GS-013, 2-(2,6-Dioxopiperidin-3-yl)-5-((6-(4-(4-methylpiperazin-1-yl)piperidin-1-yl)-6-oxohexyl)amino)isoindoline-1,3-dione]: the IC50 with MV4;11 cells (setting [1]) was above 10000 nM; with MV4;11 cells (setting [2]) it was above 10000 nM; in the test with MOLM-13 cells (setting [3]) it was 1850 nM; in the test on MOLM-13 cells (setting [4]), above 10000 nM.
Regarding `O=C1CCC(N2C(=O)c3ccc(NCCCCCC(=O)N4CCC(c5ncccn5)CC4)cc3C2=O)C(=O)N1` (centres unmarked) [GS-014, 2-(2,6-Dioxopiperidin-3-yl)-5-((6-oxo-6-(4-(pyrimidin-2-yl)piperidin-1-yl)hexyl)amino)isoindoline-1,3-dione], the IC50 in the test with MV4;11 cells (setting [1]) is 8.3 nM; in the test on MV4;11 cells (setting [2]), 71 nM; with MOLM-13 cells (setting [3]), 10 nM; in the test with MOLM-13 cells (setting [4]) it was 107 nM.
Consider `O=C1CCC(N2C(=O)c3ccc(NCCCCCC(=O)N4CCC(N5CCC(c6cnc7ccccc7n6)C5)CC4)cc3C2=O)C(=O)N1` (centres unmarked) [GS-015, 2-(2,6-Dioxopiperidin-3-yl)-5-((6-oxo-6-(4-(3-(quinoxalin-2-yl)pyrrolidin-1-yl)piperidin-1-yl)hexyl)amino)isoindoline-1,3-dione], for which the IC50 with MV4;11 cells (setting [1]) is 2780 nM; in the test on MV4;11 cells (setting [2]), above 10000 nM; in the test on MOLM-13 cells (setting [3]), 30 nM; with MOLM-13 cells (setting [4]) it was above 10000 nM.
For `Cc1ccccc1C(=O)N1CCN(C(=O)CCCCCNc2ccc3c(c2)C(=O)N(C2CCC(=O)NC2=O)C3=O)CC1` (centres unmarked) [GS-016, 2-(2,6-Dioxopiperidin-3-yl)-5-((6-(4-(2-methylbenzoyl)piperazin-1-yl)-6-oxohexyl)amino)isoindoline-1,3-dione], the IC50 in the test with MV4;11 cells (setting [1]) was above 10000 nM; in the test with MV4;11 cells (setting [2]) it was above 10000 nM; with MOLM-13 cells (setting [3]), 86 nM; in the test with MOLM-13 cells (setting [4]), above 10000 nM.
Regarding `O=C1CCC(N2C(=O)c3ccc(NCCCCCC(=O)N4CCC(c5ccccn5)CC4)cc3C2=O)C(=O)N1` (centres unmarked) [GS-017, 2-(2,6-Dioxopiperidin-3-yl)-5-((6-oxo-6-(4-(pyridin-2-yl)piperidin-1-yl)hexyl)amino)isoindoline-1,3-dione], the IC50 came out at 2 nM with MV4;11 cells (setting [1]), 20 nM in the test with MV4;11 cells (setting [2]), 2 nM with MOLM-13 cells (setting [3]) and 30 nM in the test on MOLM-13 cells (setting [4]).
As for `O=C1CCC(N2Cc3cc(OCCOCCC(=O)N4CCC(n5cc(-c6cnc7cccc(Br)c7n6)cn5)CC4)ccc3C2=O)C(=O)N1` (centres unmarked) [GS-018, 3-(5-(2-(3-(4-(4-(8-Bromoquinoxalin-2-yl)-1H-pyrazol-1-yl)piperidin-1-yl)-3-oxopropoxy)ethoxy)-1-oxoisoindolin-2-yl)piperidine-2,6-dione], the IC50 with MV4;11 cells (setting [1]) is 0.9 nM; with MV4;11 cells (setting [2]), 8.7 nM; with MOLM-13 cells (setting [3]), 1.6 nM; with MOLM-13 cells (setting [4]), 15.6 nM.
